Reference: ChEMBL document CHEMBL6109155, “Discovery of Phenylacylpiperidine as Novel sEH Inhibitors through Scaffold Hopping of Natural Stilbene” (J Med Chem, 2025)
Calls of active or inactive are those of the source. No cut-off for these calls is given here.

Columns and labels:
Rattus norvegicus [1] = assay: Anti-inflammatory activity in Sprague-Dawley rat model of CFA-induced rheumatoid arthritis assessed as decrease in swelling degree of right paw at 10 mg/kg, po administered daily measured after 4 days; assay type: functional, organism-based; details: time 4.0 day
Rattus norvegicus [2] = assay: Anti-inflammatory activity in Sprague-Dawley rat model of CFA-induced rheumatoid arthritis assessed as improvement in body weight at 10 mg/kg, po administered daily measured for 19 days; assay type: functional, organism-based; details: time 19.0 day
Mus musculus [3] = assay: Anti-inflammatory activity in CD-1 mouse model of cerulein-induced acute pancreatitis assessed as decrease in neutrophil infiltration in pancreas at 10 mg/kg, ip drug administered at 30 mins and 2.5 hrs post-first cerulein injection and measured after 6 hrs post-first cerulein injection by H and E staining based analysis; assay type: functional, organism-based; details: time 3.5-5.5 hrs
[4] = Volume of distribution in Sprague-Dawley rat at 5 mg/kg, iv measured for 24 hrs; assay type: ADME, organism-based; details: in vivo
Rattus norvegicus [5] = assay: Anti-inflammatory activity in Sprague-Dawley rat model of CFA-induced rheumatoid arthritis assessed as TV value at 10 mg/kg, po administered daily measured after 19 days by micro-CT analysis (reference value: 92.617 mm3); assay type: functional; details: time 19 day
Mus musculus [6] = assay: Effect on ratio of 5,6-EET to DHET plasma levels in BALB/c mouse model of carrageenan-induced paw edema at 10 mg/kg, po measured after 6 hrs; assay type: functional, organism-based
Rattus norvegicus [7] = assay: Anti-inflammatory activity in Sprague-Dawley rat model of CFA-induced rheumatoid arthritis assessed as decrease in joint deformity at 10 mg/kg, po administered daily measured after 7 days; assay type: functional, organism-based; details: time 7.0 day
Mus musculus [8] = assay: Anti-inflammatory activity in BALB/c mouse model of carrageenan-induced paw edema assessed as inhibition of paw swelling at 20 mg/kg, po measured for 2 hrs relative to control; assay type: functional
Mus musculus [9] = assay: Anti-inflammatory activity in CD-1 mouse model of cerulein-induced acute pancreatitis assessed as decrease in plasma IL-6 level at 10 mg/kg, ip drug administered at 30 mins and 2.5 hrs post-first cerulein injection and measured after 6 hrs post-first cerulein injection; assay type: functional, organism-based; details: time 3.5-5.5 hrs
[10] = Tmax in Sprague-Dawley rat at 5 mg/kg, iv measured for 24 hrs; assay type: ADME, organism-based; details: in vivo
Rattus norvegicus [11] = assay: Anti-inflammatory activity in Sprague-Dawley rat model of CFA-induced rheumatoid arthritis assessed as BV value at 10 mg/kg, po administered daily measured after 19 days by micro-CT analysis (reference value: 37.091 mm3); assay type: functional; details: time 19 day
[12] = Cmax in brain of C57BL/6J mouse at 20 mg/kg, po measured for 24 hrs; assay type: ADME, organism-based
Rattus norvegicus [13] = assay: Anti-inflammatory activity in Sprague-Dawley rat model of CFA-induced rheumatoid arthritis assessed as increase in plasma 8,9-EET level at 10 mg/kg, po administered daily measured after 19 days relative to control; assay type: functional; details: time 19 day
Rattus norvegicus [14] = assay: Anti-inflammatory activity in Sprague-Dawley rat model of CFA-induced rheumatoid arthritis assessed as BS/BV value at 10 mg/kg, po administered daily measured after 19 days by micro-CT analysis (reference value: 17.147 %); assay type: functional; details: time 19 day
Mus musculus [15] = assay: Anti-inflammatory activity in CD-1 mouse model of cerulein-induced acute pancreatitis assessed as decrease in inflammatory response in pancreas at 10 mg/kg, ip drug administered at 30 mins and 2.5 hrs post-first cerulein injection and measured after 6 hrs post-first cerulein injection by H and E staining based analysis; assay type: functional, organism-based; details: time 3.5-5.5 hrs
[16] = Cmax in Sprague-Dawley rat at 5 mg/kg, iv measured for 24 hrs; assay type: ADME, organism-based; details: in vivo
Rattus norvegicus [17] = assay: Anti-inflammatory activity in Sprague-Dawley rat model of CFA-induced rheumatoid arthritis assessed as […] in new blood vessel formation in synovial tissue at 10 mg/kg, po administered daily measured after 19 days by H and E staining based analysis; assay type: functional, organism-based; details: time 19.0 day
Mus musculus [18] = assay: Anti-inflammatory activity in CD-1 mouse model of cerulein-induced acute pancreatitis assessed as increase in ratio of plasma 14,15-EET/DHET level at 10 mg/kg, ip drug administered at 30 mins and 2.5 hrs post-first cerulein injection and measured after 6 hrs post-first cerulein injection (reference value: 69.8 to 77.3 %); assay type: functional; details: time 3.5-5.5 hrs
Mus musculus [19] = assay: Anti-inflammatory activity in BALB/c mouse model of carrageenan-induced paw edema assessed as inhibition of paw swelling at 1 mg/kg, po measured after 6 hrs relative to control; assay type: functional
[20] = AUC (0 to 24 hrs) in Sprague-Dawley rat at 5 mg/kg, iv measured for 24 hrs; assay type: ADME, organism-based; details: in vivo
[21] = Half life in Sprague-Dawley rat at 20 mg/kg, po measured for 24 hrs; assay type: ADME, organism-based; details: in vivo
[22] = Ratio of AUC (0 to 24 hrs) in brain to plasma in C57BL/6J mouse at 20 mg/kg, po measured for 24 hrs; assay type: ADME, organism-based; details: brain and plasma, read-out: Ratio AUC
Rattus norvegicus [23] = assay: Anti-inflammatory activity in Sprague-Dawley rat model of CFA-induced rheumatoid arthritis assessed as improvement in chondrocytes morphology at 10 mg/kg, po administered daily measured after 19 days by H and E staining based analysis; assay type: functional, organism-based; details: time 19.0 day
Mus musculus [24] = assay: Anti-inflammatory activity in CD-1 mouse model of cerulein-induced acute pancreatitis assessed as increase in ratio of plasma 8,9-EET/DHET level at 10 mg/kg, ip drug administered at 30 mins and 2.5 hrs post-first cerulein injection and measured after 6 hrs post-first cerulein injection (reference value: 69.8 to 77.3 %); assay type: functional; details: time 3.5-5.5 hrs
Cytochrome P450 2D6 = Cytochrome P450 2D6 (Homo sapiens, UniProt P10635); assay: Inhibition of CYP2D6 in human liver microsomes preincubated for 10 mins followed by NADPH addition measured after 3.5 mins by LC-MS/MS analysis; assay type: ADME, Microsome
Sequence of Cytochrome P450 2D6 (P10635 whole entry): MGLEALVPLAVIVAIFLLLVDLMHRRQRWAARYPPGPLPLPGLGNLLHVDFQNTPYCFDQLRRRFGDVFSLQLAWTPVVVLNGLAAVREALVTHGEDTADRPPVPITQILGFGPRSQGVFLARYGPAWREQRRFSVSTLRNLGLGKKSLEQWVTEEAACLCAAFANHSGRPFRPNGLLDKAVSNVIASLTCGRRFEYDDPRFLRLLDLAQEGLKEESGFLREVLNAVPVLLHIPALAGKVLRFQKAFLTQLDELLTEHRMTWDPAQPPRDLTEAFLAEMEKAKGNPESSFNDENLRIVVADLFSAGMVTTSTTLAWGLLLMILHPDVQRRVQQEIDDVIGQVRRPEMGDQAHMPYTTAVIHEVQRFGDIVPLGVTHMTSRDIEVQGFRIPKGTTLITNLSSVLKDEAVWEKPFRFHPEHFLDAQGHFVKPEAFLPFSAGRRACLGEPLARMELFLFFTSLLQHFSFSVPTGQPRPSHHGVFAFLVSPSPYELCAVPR

[25] = Clearance in Sprague-Dawley rat at 5 mg/kg, iv measured for 24 hrs; assay type: ADME, organism-based; details: in vivo
[26] = Volume of distribution in Sprague-Dawley rat at 20 mg/kg, po measured for 24 hrs; assay type: ADME, organism-based; details: in vivo
Rattus norvegicus [27] = assay: Anti-inflammatory activity in Sprague-Dawley rat model of CFA-induced rheumatoid arthritis assessed as improvement in joint cavity at 10 mg/kg, po administered daily measured after 19 days by H and E staining based analysis; assay type: functional, organism-based; details: time 19.0 day
[28] = Ratio of AUC (0 to 24 hrs) in kidney to plasma in C57BL/6J mouse at 20 mg/kg, po measured for 24 hrs; assay type: ADME, organism-based; details: kidney and plasma, read-out: Ratio AUC
[29] = AUC (0 to 24 hrs) in Sprague-Dawley rat at 20 mg/kg, po measured for 24 hrs; assay type: ADME, organism-based; details: in vivo
Rattus norvegicus [30] = assay: Anti-inflammatory activity in Sprague-Dawley rat model of CFA-induced rheumatoid arthritis assessed as smooth cartilage surface at 10 mg/kg, po administered daily measured after 19 days by H and E staining based analysis; assay type: functional, organism-based; details: time 19.0 day
Mus musculus [31] = assay: Anti-inflammatory activity in BALB/c mouse model of carrageenan-induced paw edema assessed as decrease in plasma 11,12-DHET levels at 10 mg/kg, po measured after 6 hrs relative to control; assay type: functional; design: scale not given: the % may be the effect or the level left
[32] = AUC (0 to 24 hrs) in kidney of C57BL/6J mouse at 20 mg/kg, po measured for 24 hrs; assay type: ADME, organism-based
Rattus norvegicus [33] = assay: Anti-inflammatory activity in Sprague-Dawley rat model of CFA-induced rheumatoid arthritis assessed as decrease in paw redness at 10 mg/kg, po administered daily measured after 7 days; assay type: functional, organism-based; details: time 7.0 day

## COc1cc(CC(=O)N2CCC(NC(=O)NCc3ccc(OC(F)(F)F)cc3)CC2)cc(OC)c1
Rattus norvegicus [1]
  Activity: Active
Rattus norvegicus [2]
  Activity: Active
Mus musculus [3]
  Activity: Active
[4]
  Vd: 1.39 L/kg
Rattus norvegicus [5]
  Activity: 57.762 mm3
Mus musculus [6]
  Activity: No effect
Rattus norvegicus [7]
  Activity: Active
Mus musculus [8]
  inhibition in vivo at 20 mg/kg: 44.6%
Mus musculus [9]
  Activity: Active
[10]
  Tmax: 4.8 min
Rattus norvegicus [11]
  Activity: 36.234 mm3
[12]
  Cmax: 27.9 ng/g
Rattus norvegicus [13]
  Activity: 105%
Rattus norvegicus [14]
  Activity: 11.923%
Mus musculus [15]
  Activity: Active
[16]
  Cmax: 3120 ng/mL
Rattus norvegicus [17]
  Activity: Active; Few Newly Formed Blood Vessels Was Observed
Mus musculus [18]
  Activity: 905%
Mus musculus [19]
  inhibition in vivo at 1 mg/kg: 22%
[20]
  AUC(0-t) at 24 h: 2190 ng·h/mL
[21]
  half-life: 113 min
[22]
  Kp at 24 h: 0.02
Rattus norvegicus [23]
  Activity: Active
Mus musculus [24]
  Activity: 558%
Cytochrome P450 2D6
  IC50: 46.8 µM
[25]
  clearance: 38.8 mL/min/kg
[26]
  Vd: 74.6 L/kg
Rattus norvegicus [27]
  Activity: Active
[28]
  Kp at 24 h: 32.4
[29]
  AUC(0-t) at 24 h: 725 ng·h/mL
Rattus norvegicus [30]
  Activity: Active
Mus musculus [31]
  Activity: 55.1%
[32]
  AUC(0-t) at 24 h: 17200 ng·h/mL
Rattus norvegicus [33]
  Activity: Active
